Data on seven compounds can be found in ChEMBL document CHEMBL1201862, “PubChem BioAssay data set” (2004).

Calls of active or inactive are those of the source.

One assay addresses Hexokinase (Trypanosoma brucei, UniProt Q38C41). Put plainly: Confirmation assay for inhibitors of Trypanosoma brucei hexokinase 1-Analogue-first series. [Related pubchem assays (depositor defined):AID1430, AID1632, AID2516, AID2560, AID2579, AID2600, AID449725, AID492951]. The class given is functional.
Assay [1] has as its target DNA dC->dU-editing enzyme APOBEC-3A (Homo sapiens, UniProt P31941). Put plainly: Dose Response confirmation of small molecule APOBEC3A DNA Deaminase Inhibitors via a fluorescence-based single-stranded DNA deaminase assay. [Related pubchem assays (depositor defined):AID493011, AID493024]. The class given is functional.
Assay [2] concerns the target DNA dC->dU-editing enzyme APOBEC-3G (Homo sapiens, UniProt Q9HC16). Type of assay: functional.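 Note: Dose-response counterscreen measuring inhibition of APOBEC3G DNA deaminase activity, run while confirming APOBEC3A inhibitors.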
The next assay concerns Vero. In words: Vero cell cytotoxicity, cytotoxicity control for flavivirus capping enzyme inhibitors (AID 588742). Type of assay: functional. The note with it: Chlorocebus sabaeus.
For another assay, the target named is Genome polyprotein (dengue virus type 2, UniProt P29990). Put plainly: Dengue-2 NS5 methyltransferase inhibitors, primary screen, biochemical, confirmation dose response (AID 588689). Type of assay: functional.
For assay [3], the target named is T1, Histone-lysine N-methyltransferase NSD2 (Homo sapiens, UniProt O96028).
T1 sequence (O96028 whole entry): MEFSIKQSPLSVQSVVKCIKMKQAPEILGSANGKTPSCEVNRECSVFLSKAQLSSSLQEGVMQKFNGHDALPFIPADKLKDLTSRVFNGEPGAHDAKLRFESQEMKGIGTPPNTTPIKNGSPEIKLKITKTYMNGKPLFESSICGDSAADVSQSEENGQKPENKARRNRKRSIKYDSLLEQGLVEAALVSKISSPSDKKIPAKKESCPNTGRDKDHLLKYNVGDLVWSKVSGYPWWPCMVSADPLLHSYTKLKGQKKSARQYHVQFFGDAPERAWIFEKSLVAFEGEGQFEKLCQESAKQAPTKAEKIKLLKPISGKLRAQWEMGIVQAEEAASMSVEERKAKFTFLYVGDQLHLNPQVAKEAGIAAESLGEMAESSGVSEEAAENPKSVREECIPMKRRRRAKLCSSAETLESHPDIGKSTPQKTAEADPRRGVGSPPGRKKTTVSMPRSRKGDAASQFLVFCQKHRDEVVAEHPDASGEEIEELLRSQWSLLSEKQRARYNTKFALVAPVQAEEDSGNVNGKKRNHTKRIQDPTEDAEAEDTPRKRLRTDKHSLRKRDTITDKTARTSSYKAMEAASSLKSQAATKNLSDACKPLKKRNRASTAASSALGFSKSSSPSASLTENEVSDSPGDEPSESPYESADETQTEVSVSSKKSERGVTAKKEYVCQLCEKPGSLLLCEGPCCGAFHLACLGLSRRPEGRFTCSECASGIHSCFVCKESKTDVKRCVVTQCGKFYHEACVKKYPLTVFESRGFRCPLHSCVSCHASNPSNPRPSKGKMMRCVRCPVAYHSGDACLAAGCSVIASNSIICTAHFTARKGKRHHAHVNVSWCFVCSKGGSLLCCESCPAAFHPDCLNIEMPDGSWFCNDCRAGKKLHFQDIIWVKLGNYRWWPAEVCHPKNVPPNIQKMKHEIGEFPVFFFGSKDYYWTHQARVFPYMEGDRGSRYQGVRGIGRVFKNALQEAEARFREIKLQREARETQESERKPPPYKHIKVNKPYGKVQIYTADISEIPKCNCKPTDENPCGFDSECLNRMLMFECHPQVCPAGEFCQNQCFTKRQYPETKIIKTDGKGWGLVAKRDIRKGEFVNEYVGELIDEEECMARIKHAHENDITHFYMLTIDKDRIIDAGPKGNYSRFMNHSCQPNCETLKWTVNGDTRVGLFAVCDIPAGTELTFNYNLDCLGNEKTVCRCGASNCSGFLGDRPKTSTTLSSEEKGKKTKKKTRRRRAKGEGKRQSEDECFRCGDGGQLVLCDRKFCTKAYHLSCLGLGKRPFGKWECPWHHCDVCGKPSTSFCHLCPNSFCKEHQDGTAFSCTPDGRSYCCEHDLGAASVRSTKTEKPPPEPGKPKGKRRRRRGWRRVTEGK
The class given is biochemical.

Assay [4] has as its target T2, Dual specificity protein phosphatase 3 (Homo sapiens, UniProt P51452). Put plainly: SAR VHR1 absorbance Assay for In Vitro dose response studies. [Related pubchem assays (depositor defined):AID1654, AID1661, AID1878, AID1992, AID2004].
The target of assay [5] is T2, Dual specificity protein phosphatase 3. Put plainly: SAR VHR1 Fluorescent Assay for In Vitro dose response studies. [Related pubchem assays (depositor defined):AID1654, AID1661, AID1878, AID1992, AID2004, AID2070, AID2085]. The class given is functional.
The target in assay [6] is T3, Tyrosine-protein phosphatase non-receptor type 7 (Homo sapiens, UniProt P35236).
T3 sequence (P35236 whole entry): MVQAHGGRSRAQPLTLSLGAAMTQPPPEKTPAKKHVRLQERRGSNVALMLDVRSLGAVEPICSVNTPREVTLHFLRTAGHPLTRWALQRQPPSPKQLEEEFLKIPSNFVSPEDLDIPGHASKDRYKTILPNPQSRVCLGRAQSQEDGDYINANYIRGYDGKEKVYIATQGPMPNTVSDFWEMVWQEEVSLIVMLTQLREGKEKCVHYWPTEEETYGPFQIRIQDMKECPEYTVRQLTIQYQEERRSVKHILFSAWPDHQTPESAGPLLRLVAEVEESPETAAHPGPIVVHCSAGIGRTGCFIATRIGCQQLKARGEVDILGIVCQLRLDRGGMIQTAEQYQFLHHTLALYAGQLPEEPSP
Put plainly: redox-dependent HePTP inhibition, mechanism study, biochemical, fluorescence (AID 2068). The class given is functional.

Assay [7] deals with T4, Dual specificity protein phosphatase 6 (Rattus norvegicus, UniProt Q64346).
T4 sequence (Q64346 whole entry): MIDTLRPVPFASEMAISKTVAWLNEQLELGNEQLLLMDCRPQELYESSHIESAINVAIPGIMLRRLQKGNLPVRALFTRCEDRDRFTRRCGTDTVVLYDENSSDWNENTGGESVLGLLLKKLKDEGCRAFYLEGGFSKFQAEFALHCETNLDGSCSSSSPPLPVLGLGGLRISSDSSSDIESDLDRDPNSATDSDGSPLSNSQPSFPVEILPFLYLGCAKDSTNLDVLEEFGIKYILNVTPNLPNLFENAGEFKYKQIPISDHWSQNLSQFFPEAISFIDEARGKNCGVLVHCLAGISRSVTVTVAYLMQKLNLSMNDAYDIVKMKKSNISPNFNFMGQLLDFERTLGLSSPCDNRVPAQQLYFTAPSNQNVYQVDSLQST
Type of assay: functional.

Another assay addresses T5, Coagulation factor XII (Homo sapiens, UniProt P00748).
T5 sequence (P00748 whole entry): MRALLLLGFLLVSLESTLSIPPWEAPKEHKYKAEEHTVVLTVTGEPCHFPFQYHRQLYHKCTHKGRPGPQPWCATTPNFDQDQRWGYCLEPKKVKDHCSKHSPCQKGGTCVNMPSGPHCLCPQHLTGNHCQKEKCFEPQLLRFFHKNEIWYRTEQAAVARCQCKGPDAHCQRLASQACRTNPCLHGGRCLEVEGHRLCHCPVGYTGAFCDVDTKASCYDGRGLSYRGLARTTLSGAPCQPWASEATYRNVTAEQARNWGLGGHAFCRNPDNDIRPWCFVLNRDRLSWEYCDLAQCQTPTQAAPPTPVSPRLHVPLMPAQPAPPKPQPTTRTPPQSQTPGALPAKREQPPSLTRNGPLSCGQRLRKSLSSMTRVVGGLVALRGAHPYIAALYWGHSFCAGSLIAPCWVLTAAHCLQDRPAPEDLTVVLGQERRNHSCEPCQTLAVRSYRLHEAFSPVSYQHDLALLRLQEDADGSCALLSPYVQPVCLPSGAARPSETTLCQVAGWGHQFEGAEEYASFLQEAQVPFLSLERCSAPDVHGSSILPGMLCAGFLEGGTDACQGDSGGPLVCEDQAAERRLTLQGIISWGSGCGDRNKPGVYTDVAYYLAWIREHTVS
Put plainly: Factor XIIa Dose Response Confirmation from Single Well HTS. [Related pubchem assays (depositor defined):AID701]. Type of assay: functional.

For assay [8], the target named is T6, Voltage-gated N-type calcium channel alpha-1B subunit/Amyloid beta A4 precursor protein-binding family A member 1 (Homo sapiens, UniProt Q00975+Q02410). Type of assay: protein assay.
Assay [9] deals with T6, Voltage-gated N-type calcium channel alpha-1B subunit/Amyloid beta A4 precursor protein-binding family A member 1. Type of assay: protein assay. This is another data set of the same source.
For assay [10], the target named is Bifunctional protein GlmU (Mycobacterium tuberculosis, UniProt P9WMN3). In words: Inhibitors of Mycobacterial Glucosamine-1-phosphate acetyl transferase (GlmU). Secondary screen. Also noted: species or system Mycobacterium tuberculosis H37Rv.
In assay [11] the target is Induced myeloid leukemia cell differentiation protein Mcl-1 (Homo sapiens, UniProt Q07820). Type of assay: functional.
Assay [12] concerns the target T7, Mannose-6-phosphate isomerase (Homo sapiens, UniProt P34949).
T7 sequence (P34949 whole entry): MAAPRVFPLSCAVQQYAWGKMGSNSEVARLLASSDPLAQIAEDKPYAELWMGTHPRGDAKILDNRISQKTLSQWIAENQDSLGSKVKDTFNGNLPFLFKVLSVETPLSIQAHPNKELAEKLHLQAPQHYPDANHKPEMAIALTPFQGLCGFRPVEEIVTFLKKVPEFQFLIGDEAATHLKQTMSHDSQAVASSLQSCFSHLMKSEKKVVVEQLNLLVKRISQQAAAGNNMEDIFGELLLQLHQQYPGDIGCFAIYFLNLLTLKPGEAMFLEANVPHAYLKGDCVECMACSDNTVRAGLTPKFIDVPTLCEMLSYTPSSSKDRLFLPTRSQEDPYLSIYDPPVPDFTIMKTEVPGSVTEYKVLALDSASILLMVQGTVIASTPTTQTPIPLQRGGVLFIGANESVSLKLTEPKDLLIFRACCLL
In words: human PMI inhibitors, high substrate, primary screen, biochemical, fluorescence intensity, high mannose 6-phosphate (AID 1220).

Assay [13] has as its target Glucose-6-phosphate 1-dehydrogenase (Homo sapiens, UniProt P11413). Put plainly: human G6PD enzyme inhibitors, dose response, selectivity assay for P. falciparum G6PD inhibitor project, biochemical, fluorescence (AID 504792). The class given is functional.
Assay [14] deals with Eukaryotic translation initiation factor 4E (Mus musculus, UniProt P63073). In words: eIF4E–eIF4G protein interaction inhibitors, dose response, biochemical, TR-FRET (AID 855).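 Note: potency for disrupting eIF4E binding to eIF4GI seen as loss of FRET.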 Type of assay: functional.
The target of another assay is Mu-type opioid receptor (Homo sapiens, UniProt P35372). In words: SAR Analysis of Antagonists of the MOR Receptor using an Image-Based Assay - Set 3. [Related pubchem assays (depositor defined):AID1777, AID1785, AID1786, AID1966, AID2133, AID2136, AID2284, AID2285, AID2420]. Type of assay: functional.
Assay [15] concerns the target Delta-type opioid receptor (Homo sapiens, UniProt P41143). In words: SAR Analysis of Antagonists of the DOR Receptor using an Image-Based Assay - Set 3. [Related pubchem assays (depositor defined):AID1777, AID1785]. Type of assay: functional.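 Note: U2OS cells expressing DOR1 and beta-arrestin GFP stimulated with 100 nM SNC80; imaging of GFP-tagged beta-arrestin moving into spots after receptor activation.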
Assay [16] concerns the target T8, Kappa-type opioid receptor (Homo sapiens, UniProt P41145). In words: SAR analysis of small molecule antagonists of the kappa opioid receptor via a luminescent beta-arrestin assay - Set 3. [Related pubchem assays (depositor defined):AID1777, AID1778, AID1785, AID1786, AID1966, AID2133, AID2136, AID2285, AID2495]. Type of assay: functional.
In assay [17] the target is T8, Kappa-type opioid receptor. Put plainly: SAR analysis of Antagonists of the Kappa Opioid Receptor (KOR) using an Image-Based Assay - Set 3. [Related pubchem assays (depositor defined):AID1777, AID1785]. The class given is functional.
For another assay, the target named is Integrin alpha-L (Mus musculus, UniProt P24063). In words: modulators of CD8 T cell-vesicle binding, dose response, powder samples, mouse 2C CD8+ cells (AID 504565). The class given is functional.
Another assay concerns T-cell. In words: inhibitors of CD8+ T cell–vesicle binding, dose response, mouse 2C CD8+ T cells, flow cytometry (AID 485284). The class given is functional.

Chain of Genome polyprotein (P29990 2492-3391 limits assumed): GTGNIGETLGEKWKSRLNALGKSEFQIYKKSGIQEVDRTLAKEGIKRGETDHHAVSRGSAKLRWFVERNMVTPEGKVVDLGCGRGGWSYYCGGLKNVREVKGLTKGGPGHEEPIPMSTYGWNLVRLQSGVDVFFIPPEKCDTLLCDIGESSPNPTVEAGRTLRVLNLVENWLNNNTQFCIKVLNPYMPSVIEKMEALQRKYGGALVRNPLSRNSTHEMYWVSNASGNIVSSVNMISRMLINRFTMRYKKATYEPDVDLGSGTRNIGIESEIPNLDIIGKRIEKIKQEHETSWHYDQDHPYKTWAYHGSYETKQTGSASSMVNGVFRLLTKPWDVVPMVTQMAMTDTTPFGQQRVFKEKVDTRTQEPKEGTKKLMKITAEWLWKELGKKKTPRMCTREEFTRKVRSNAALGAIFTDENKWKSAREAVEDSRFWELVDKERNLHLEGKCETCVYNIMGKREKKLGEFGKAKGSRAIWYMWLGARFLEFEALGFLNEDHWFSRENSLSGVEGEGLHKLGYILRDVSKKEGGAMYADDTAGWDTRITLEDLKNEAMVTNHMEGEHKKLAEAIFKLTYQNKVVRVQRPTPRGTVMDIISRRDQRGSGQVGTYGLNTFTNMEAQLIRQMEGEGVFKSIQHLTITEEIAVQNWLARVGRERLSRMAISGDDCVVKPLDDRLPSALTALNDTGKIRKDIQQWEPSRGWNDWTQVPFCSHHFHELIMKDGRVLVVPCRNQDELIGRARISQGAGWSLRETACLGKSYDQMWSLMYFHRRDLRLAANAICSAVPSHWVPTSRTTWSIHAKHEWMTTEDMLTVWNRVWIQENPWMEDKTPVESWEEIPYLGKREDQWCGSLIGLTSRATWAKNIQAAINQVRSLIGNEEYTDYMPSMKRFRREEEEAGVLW
T2 sequence (P51452 whole entry): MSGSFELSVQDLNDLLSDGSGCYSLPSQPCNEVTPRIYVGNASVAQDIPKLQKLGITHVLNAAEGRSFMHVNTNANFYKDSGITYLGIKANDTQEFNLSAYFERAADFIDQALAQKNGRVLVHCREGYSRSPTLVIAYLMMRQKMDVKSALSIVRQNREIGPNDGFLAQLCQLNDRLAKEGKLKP
T6 sequence (Q00975 whole entry): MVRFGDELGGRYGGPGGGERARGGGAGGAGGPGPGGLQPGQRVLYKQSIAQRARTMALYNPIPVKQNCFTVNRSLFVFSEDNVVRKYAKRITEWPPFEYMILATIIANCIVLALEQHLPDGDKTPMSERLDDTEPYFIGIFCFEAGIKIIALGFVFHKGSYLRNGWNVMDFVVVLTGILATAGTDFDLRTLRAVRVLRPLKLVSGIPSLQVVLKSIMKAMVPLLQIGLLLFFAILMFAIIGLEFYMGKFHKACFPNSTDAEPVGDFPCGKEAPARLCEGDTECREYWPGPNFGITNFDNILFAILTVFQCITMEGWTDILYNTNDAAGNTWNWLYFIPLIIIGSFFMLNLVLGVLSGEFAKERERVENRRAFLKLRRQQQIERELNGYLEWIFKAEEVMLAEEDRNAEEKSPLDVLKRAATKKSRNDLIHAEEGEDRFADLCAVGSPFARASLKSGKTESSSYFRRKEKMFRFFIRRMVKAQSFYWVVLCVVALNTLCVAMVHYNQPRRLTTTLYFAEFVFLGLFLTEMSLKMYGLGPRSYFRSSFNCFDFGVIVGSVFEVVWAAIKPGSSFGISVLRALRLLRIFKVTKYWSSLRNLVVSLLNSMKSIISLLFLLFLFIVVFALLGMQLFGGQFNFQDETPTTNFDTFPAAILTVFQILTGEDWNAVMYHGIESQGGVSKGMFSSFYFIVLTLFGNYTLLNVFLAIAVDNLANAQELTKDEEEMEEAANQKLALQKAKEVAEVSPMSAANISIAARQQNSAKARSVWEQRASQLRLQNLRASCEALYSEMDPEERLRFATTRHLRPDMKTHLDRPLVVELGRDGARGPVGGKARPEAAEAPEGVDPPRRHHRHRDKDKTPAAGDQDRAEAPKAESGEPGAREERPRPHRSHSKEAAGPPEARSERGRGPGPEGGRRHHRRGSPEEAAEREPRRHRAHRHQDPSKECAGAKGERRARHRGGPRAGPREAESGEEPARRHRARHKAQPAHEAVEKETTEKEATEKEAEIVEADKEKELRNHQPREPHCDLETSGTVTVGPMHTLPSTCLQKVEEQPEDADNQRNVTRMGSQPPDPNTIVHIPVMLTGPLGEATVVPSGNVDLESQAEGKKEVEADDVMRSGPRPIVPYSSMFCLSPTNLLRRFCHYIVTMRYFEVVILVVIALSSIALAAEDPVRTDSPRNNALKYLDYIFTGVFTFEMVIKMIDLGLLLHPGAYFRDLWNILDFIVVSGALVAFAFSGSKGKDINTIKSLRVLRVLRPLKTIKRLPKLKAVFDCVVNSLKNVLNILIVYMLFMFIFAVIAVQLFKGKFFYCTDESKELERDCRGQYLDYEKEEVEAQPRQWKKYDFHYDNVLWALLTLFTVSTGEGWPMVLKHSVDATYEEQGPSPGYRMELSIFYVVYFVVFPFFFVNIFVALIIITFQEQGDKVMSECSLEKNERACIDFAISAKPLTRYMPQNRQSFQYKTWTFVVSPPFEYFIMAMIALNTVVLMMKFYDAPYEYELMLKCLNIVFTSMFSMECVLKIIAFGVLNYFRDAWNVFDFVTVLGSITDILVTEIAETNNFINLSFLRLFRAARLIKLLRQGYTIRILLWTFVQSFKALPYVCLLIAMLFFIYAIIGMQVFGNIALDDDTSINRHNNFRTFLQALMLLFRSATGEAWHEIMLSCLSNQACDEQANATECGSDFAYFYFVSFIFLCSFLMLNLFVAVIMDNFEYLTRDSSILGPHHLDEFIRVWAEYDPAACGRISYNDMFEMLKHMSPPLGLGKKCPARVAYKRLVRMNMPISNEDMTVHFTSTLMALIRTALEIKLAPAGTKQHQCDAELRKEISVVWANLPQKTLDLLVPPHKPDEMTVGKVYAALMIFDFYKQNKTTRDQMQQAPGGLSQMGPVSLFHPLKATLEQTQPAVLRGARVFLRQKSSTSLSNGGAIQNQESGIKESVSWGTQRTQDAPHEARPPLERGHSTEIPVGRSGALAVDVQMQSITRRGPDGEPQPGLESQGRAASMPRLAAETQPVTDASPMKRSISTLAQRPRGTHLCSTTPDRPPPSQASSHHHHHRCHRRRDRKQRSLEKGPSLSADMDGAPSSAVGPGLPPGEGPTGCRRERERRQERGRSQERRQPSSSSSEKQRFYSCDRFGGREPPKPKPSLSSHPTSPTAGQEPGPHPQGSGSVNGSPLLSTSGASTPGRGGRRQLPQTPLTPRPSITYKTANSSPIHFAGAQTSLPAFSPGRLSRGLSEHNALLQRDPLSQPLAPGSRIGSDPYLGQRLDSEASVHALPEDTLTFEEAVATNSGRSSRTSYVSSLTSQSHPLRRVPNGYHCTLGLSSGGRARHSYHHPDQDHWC
T6 sequence (Q02410 whole entry): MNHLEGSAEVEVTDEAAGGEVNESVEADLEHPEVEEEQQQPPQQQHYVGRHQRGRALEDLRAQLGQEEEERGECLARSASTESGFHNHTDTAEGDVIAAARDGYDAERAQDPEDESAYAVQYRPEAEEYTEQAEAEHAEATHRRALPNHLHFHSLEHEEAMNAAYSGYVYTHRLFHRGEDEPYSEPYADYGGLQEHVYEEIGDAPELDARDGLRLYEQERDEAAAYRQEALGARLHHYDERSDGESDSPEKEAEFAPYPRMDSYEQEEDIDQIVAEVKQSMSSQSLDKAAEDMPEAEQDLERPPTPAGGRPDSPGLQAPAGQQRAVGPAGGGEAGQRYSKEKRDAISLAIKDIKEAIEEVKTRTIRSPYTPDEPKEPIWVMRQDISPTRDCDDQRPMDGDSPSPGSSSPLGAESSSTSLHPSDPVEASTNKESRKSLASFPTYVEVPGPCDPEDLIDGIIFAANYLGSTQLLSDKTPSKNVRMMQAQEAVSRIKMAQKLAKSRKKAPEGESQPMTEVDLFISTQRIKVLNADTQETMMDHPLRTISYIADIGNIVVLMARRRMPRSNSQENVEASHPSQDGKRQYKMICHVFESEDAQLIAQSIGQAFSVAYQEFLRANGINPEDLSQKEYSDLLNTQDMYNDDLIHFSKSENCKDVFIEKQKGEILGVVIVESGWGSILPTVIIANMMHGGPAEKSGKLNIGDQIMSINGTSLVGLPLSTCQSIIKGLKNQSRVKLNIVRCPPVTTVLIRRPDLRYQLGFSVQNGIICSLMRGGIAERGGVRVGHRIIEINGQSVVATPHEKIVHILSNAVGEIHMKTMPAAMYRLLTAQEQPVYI
T8 sequence (P41145 whole entry): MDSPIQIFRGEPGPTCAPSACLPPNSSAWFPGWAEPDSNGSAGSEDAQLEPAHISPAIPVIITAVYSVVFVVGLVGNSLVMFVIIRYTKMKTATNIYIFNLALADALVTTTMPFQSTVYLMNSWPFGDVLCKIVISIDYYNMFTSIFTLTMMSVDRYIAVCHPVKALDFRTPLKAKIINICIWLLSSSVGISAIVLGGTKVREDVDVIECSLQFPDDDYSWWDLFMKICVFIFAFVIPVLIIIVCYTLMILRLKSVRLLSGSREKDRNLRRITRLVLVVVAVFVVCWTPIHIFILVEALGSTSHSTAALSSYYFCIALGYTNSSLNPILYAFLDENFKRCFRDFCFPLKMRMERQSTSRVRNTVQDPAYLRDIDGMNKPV
Chain of Delta-type opioid receptor (P41143 whole entry): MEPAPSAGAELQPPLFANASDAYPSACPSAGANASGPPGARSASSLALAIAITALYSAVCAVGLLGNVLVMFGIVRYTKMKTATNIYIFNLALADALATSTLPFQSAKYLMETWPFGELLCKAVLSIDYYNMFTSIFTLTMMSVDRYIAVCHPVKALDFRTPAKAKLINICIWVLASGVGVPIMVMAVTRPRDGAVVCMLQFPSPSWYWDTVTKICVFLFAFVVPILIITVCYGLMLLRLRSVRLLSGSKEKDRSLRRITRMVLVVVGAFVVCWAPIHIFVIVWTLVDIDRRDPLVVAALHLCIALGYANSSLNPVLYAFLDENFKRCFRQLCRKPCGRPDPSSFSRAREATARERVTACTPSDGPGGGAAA

`O=C(Nc1cc(Cl)ccc1C(=O)O)c1ccc2c(c1)OCO2`: the IC50 – broadly, the concentration that gives 50% inhibition – at Hexokinase was 9.43 µM (active).
Take `CC(C)C1Nc2ccc(C(=O)O)cc2C2C=CCC21` (configuration not stated): the IC50 in [1] is 21.8 µM (active); in assay [2], 16.2 µM (active); at Genome polyprotein, 38.7 µM (active). For the same compound, the CC50 (usually the concentration that lowers cell viability or growth by half) in the assay on Vero is > 40 µM (active). Also, the AC50 (commonly the concentration at which the activity in the assay is half-maximal) in assay [3] was > 20 µM (inactive).
Take `O=C(NCc1ccccc1)c1cn(CCOc2ccccc2)c2ccccc12`: the IC50 is > 100 µM (inactive) in assay [4], > 100 µM (inactive) in assay [5], 44.1 µM (active) in assay [6] and > 100 µM (inactive) in assay [7].
Take `Cc1cc(NC(=O)COC(=O)c2c(C)nn(Cc3ccccc3)c2C)no1`: the IC50 on Coagulation factor XII was > 50 µM (inactive).
Consider `Oc1ccc(/C=N/N=C(c2ccccc2)c2ccccc2)c(O)c1O`, for which the IC50 in assay [8] was 10.8 µM (active); in assay [9] it was 3.27 µM (active); in assay [10], 19.3 µM (active); in [11] it was 4.44 µM (active); in assay [12], 12.1 µM (active); in assay [13], 79.2 µM (inactive). In addition, the IC50 in assay [14] was > 64 µM (inactive); at Genome polyprotein, 23.4 µM (active). Besides, the CC50 in the assay on Vero was 31.3 µM (active). Moreover, the AC50 in [3] was 0.635 µM (active).
Take `COc1ccc(S(=O)(=O)NCc2ccc(C(=O)NCCN(Cc3ccccc3)Cc3ccccc3)cc2)cc1`: the IC50 is > 32 µM (inactive) on Mu-type opioid receptor, > 32 µM (inactive) in assay [15], > 20 µM (inactive) in assay [16] and 13.1 µM (inactive) in assay [17].
Consider `Cc1cc(Cl)c(OCCCSc2nc(C)cc(O)n2)c(Br)c1`, for which the EC50 (commonly the concentration giving half of the maximal effect) is 17.1 µM (active) at Integrin alpha-L and 56.6 µM (inactive) in the assay with T-cell.
